Assay results taken from PMC11203266, “Continuous evolution of compact protein degradation tags regulated by selective molecular glues” (Science (New York, N.Y.), 2024).
“Also recorded” adds a separate entry of the source.

Assays:
[1] = biological target: full-length CRBN (MG-PACE circuit, SD35) (Homo sapiens, UniProt Q96SW2); assay: Two-hybrid luciferase transcriptional activation in PMBN-permeabilized E. coli by compound-induced ternary complex of RR69–human full-length CRBN with ω–degron, about 1 h at 37 °C, four-parameter fit.; format: cell-based, E. coli S2060; conditions: n = 3
[2] = biological target: full-length CRBN (MG-PACE circuit, SD31) (Homo sapiens, UniProt Q96SW2); assay: as above; format: cell-based, E. coli S2060; conditions: n = 3
Excerpt: (§1) To evolve ZFs that engage PT-179-bound CRBN, we constructed an MG-PACE circuit using the CRBN•IMiD•ZF molecular glue complex. […] We translationally fused CRBN to the DNA-binding protein RR69 and fused SD0 to the RNAP ω-subunit, then measured transcriptional activation by luminescence (Fig. 2A).
(§2) Figure 2. […] (A) Full-length CRBN MG-PACE circuit. (B) CRBNCTD MG-PACE circuit. […] Values and error bars in (C), (E), and (H) represent the mean and standard deviation of three replicates, each normalized to a control treatment with DMSO only. Dashed vertical lines in (D), (F), and (G) represent neutral drift passages.
(§3) Chemically competent S2060 cells were co-transformed with accessory and complementary plasmids (Table S1).

[3] = biological target: full-length CRBN (MG-PACE circuit, SD36) (Homo sapiens, UniProt Q96SW2); assay: as above; format: cell-based, E. coli S2060; conditions: n = 3
Excerpt: as §1, §2, §3

[4] = biological target: T1, mmCRBN (MG-PACE circuit, SD55) (Mus musculus, UniProt Q8C7D2); assay: Two-hybrid luciferase transcriptional activation in PMBN-permeabilized E. coli by compound-induced ternary complex of mouse CRBN with evolved degron, about 1 h at 37 °C, four-parameter fit.; format: cell-based, E. coli S2060; conditions: n = 3
T1 construct: gene Crbn; mouse cereblon in mmCRBN MG-PACE circuit, partner SD55 (evolved ZF degron), in E. coli
Excerpt: (§4) Compared to human CRBN, mouse cereblon (mmCRBN) contains a V388I mutation that prevents IMiD-induced recruitment of ZF neosubstrates ([8]). The development of a potent and compact degron that is compatible with mmCRBN would facilitate studies that modulate target protein function in mouse systems. We hypothesized that MG-PACE could evolve degrons that overcome this difference in mmCRBN and respond to PT-179 in mouse cells. We constructed a mmCRBN MG-PACE circuit (Fig. 5A) and performed a total of 205 hours of PACE seeded with SD36-encoding phage (Fig. 5B).
(§5) Figure 5. MG-PACE evolves degrons that engage PT-179-bound mouse CRBN. (A) The mmCRBN MG-PACE circuit. Stringency is increased by expression of a competing ZF degron fused to maltose binding protein (MBP). (B) PACE in the mmCRBN MG-PACE circuit. (C) Mutations in evolved PT-179•mmCRBN-binding degrons. (D) PT-179-induced mmCRBN circuit activation (1 hr) by SD0 and evolved variants. […]
(§6) Chemically competent S2060 cells were co-transformed with accessory and complementary plasmids (Table S1). […] 96-well plates were then incubated in an Infinite M1000 Pro microplate reader (Tecan) at 37 °C with continuous shaking for ~1 hour prior to reading A600 nm and luminescence values. Raw luminescence values were then divided by the corresponding A600 nm values to normalize to cell density.

[5] = biological target: T2, mmCRBN (MG-PACE circuit, SD56) (Mus musculus, UniProt Q8C7D2); assay: as above; format: cell-based, E. coli S2060; conditions: n = 3
T2 construct: gene Crbn; mouse cereblon in mmCRBN MG-PACE circuit, partner SD56 (evolved ZF degron), in E. coli
Excerpt: as §4, §5, §6

degron-tagged eGFP = assay: Degron-tagged eGFP degradation by flow cytometry in HEK293T cells; format: cell-based, human
FKBP12 and FRB = FKBP12 and FRB (Homo sapiens, UniProt P42345+P62942); assay: Rapamycin-sensitive MG-PACE circuit, luciferase activation; format: cell-based, E. coli; conditions: without PMBN
Excerpt: as §3

FRB = conditions: read-out: KD for FRB without FKBP12; cited from earlier work
DDB1•CRBN = biological target: T3, DDB1•CRBN (Homo sapiens, UniProt Q96SW2); assay: Competitive fluorescence anisotropy (polarization) vs thalidomide-Cy5; format: binding
T3 construct: made in house
Method: Competitive fluorescence polarization experiments were performed according to previously reported methods ([65]). All experiments were performed in 25 mM HEPES, […], 1 mM TCEP, pH 7.4. A pre-complexed sample was prepared by incubating DDB1-CRBN (400 nM) with thalidomide–Cy5 conjugate (fig. S2A) (80 nM) at RT for 30 minutes with gentle shaking (220 rpm). […] Polarization values were measured on an Infinite M1000 Pro microplate reader (Tecan) following 1 hour of incubation at RT with gentle shaking. A total of three independent measurements were acquired and averaged per biological sample to generate the values shown in figure S2C. All mP values were normalized between 0 and 100 using the formula NormalizedmP=[(x−minimum)/[…]]∗100 , where ‘‘x’’ is the mP value of the sample and ‘‘minimum’’ and ‘‘maximum’’ are the minimum and maximum mP values, respectively, across all samples. KD values were estimated from computed Ki-values as previously described ([65]).

Question: Which results are given for `O=C1CCC(N2C(=O)c3ccc(N4CCOCC4)cc3C2=O)C(=O)N1` (centres unmarked) [PT-179, PT-179 (thalidomide derivative with a morpholine at the phthalimide 5-position, without the 4-amino group)]?
Answer: EC50 [1]: 0.557 µM; EC50 [2]: 3.25 µM; EC50 [3]: 0.217 µM; EC50 [4]: 1.11 µM; EC50 [5]: 0.225 µM

Question: Which “degradation activity on SD40-tagged eGFP (in words)” value (degron-tagged eGFP; fig. S11E) does the source give for `N#Cc1ccc(N2CCN(Cc3ccc(COc4cccc5c4CN([C@H]4CCC(=O)NC4=O)C5=O)cc3)CC2)c(F)c1` [mezigdomide, reference compound] here?
Answer: highly potent degradation activity

Question: For `CO[C@H]1C[C@@H]2CC[C@@H](C)[C@@](O)(O2)C(=O)C(=O)N2CCCC[C@H]2C(=O)O[C@H]([C@H](C)C[C@@H]2CC[C@@H](O)[C@H](OC)C2)CC(=O)[C@H](C)/C=C(\C)[C@@H](O)[C@@H](OC)C(=O)[C@H](C)C[C@H](C)/C=C/C=C/C=C/1C` [rapamycin], which “rapamycin concentrations at which luciferase expression was detected” value (FKBP12 and FRB) is on record?
Answer: > 1 µM

Question: What about the Kd (FRB) of the same compound?
Answer: 26 µM

Question: What does the source list for `O=C1CCC(N2C(=O)c3cc(F)c(N4CCOCC4)cc3C2=O)C(=O)N1` (centres unmarked) [PK-1016]?
Answer: lower affinity for CRBN than PT-179 (DDB1•CRBN): 2 fold; Kd (DDB1•CRBN; competition with thalidomide–Cy5, KD estimated from Ki): 1.01 µM; PK-1016-induced degradation of SD40-eGFP (in words) (degron-tagged eGFP; HEK293T cells): poor activity; also recorded: poor degrader
